Reference: patent US10111881B2 (priority 2016, dated 2018)

Columns and labels:
MARV = assay: microbe, parasite or virus in culture; assay type: cell-based, Marburgvirus (Musoke strain); conditions: for IC50: read-out: IC-50 (MARV)
EBOV = assay: organism not typed; assay type: cell-based, Zaire Ebolavirus (Mayinga strain); conditions: for IC50: read-out: IC-50 (EBOV)

Row | SMILES | IC50 (MARV) | Curve Class (EBOV) (EBOV) | IC50 (EBOV) | Curve class (MARV) (MARV)
1 | COc1ccc2c(c1)c(CCN)c(C)n2Cc1ccccc1.Cl [MLS001030162] | 25.3 µM | 1.3 | 6.41 µM | –
2 | O=C(CCCN1CCc2[nH]c3ccc(F)cc3c2C1)c1ccc(F)cc1 [MLS001173370] | 25.1 µM | 1.3 | 3.06 µM | –
3 | CC1(C)CC(NC(=O)N2c3ccccc3Sc3ccccc32)CC(C)(C)N1 [MLS000332573] | 12.8 µM | 1.3 | 6.02 µM | 1.2
4 | CCN1CCCC1CNCC(O)COc1ccc(C(C)(C)C)cc1C.O=C(O)C(=O)O (centres unmarked) [MLS001018888] | 25.7 µM | 1.3 | 12.2 µM | 1.2
5 | CCN1CCN(CCCNC(=O)c2cc3cc4ccc(OC)cc4nc3o2)CC1 [MLS000091920] | 5.4 µM | 4 | – | 1.2
6 | CN(C)CCCN(C(=O)c1ccc2ccccc2c1)c1nc2cc3c(cc2s1)OCO3.Cl [MLS001239325] | 13.3 µM | 1.7 | 1.55 µM | 1.3
7 | Cc1cc(C(=O)c2ccccc2)c(NC(=O)CCl)s1 [MLS000567464] | ~44.4 µM | 1.6 | 25.2 µM | 1.2
8 | CCOc1cccc(CNCCO)c1OCc1ccc(Cl)cc1Cl.Cl [MLS000580080] | 25.1 µM | 1.3 | 24.6 µM | 1.2
9 | COc1ccc(NC(=O)C2C3C=CC4(O3)C2C(=O)N(CCN2CCCCC2)C4C(=O)NC2CCCC(C)C2C)cc1 (centres unmarked) [MLS000936259] | 25.3 µM | 1.3 | 12.5 µM | 1.2
10 | Cc1ccc(NC(=O)ON=C2CCCC2)cc1 [MLS000569139] | 12.7 µM | 1.4 | – | 1.2
11 | Cc1cc(NC(=O)CCN2CCN(C/C=C/c3ccccc3)CC2)ccc1Br.Cl [MLS000999960] | 26.4 µM | 1.6 | 3.28 µM | –
12 | C=C1CC(C)OC(c2ccccc2OCC(O)CN2CCCCC2)C1 (centres unmarked) [MLS000042810] | 25.5 µM | 1.7 | – | 1.2
13 | Cc1cc(Cl)cc(C)c1OCCn1ccnc1 [MLS001196083] | 2.06 µM | – | 6.19 µM | –
14 | CCN(CC)CCNC(=O)c1ccc(NC(=O)c2ccccc2-c2ccc(C(F)(F)F)cc2)cc1 [MLS001175455] | 25.4 µM | 1.6 | 6.42 µM | 1.2
15 | CCOC(=O)N1CCN(S(=O)(=O)c2ccc(C(=O)N(CCCN(C)C)c3nc4c(C)c(C)ccc4s3)cc2)CC1.Cl [MLS001239358] | 13 µM | 1.6 | 0.609 µM | –
16 | CCN(CC)CCCNc1nc(CN2CCOCC2)nc2sc3c(c12)CCC3 [MLS000772389] | 24.8 µM | 1.6 | 3.51 µM | 1.2
17 | COc1ccc(C(CNC(=O)c2oc3ccc(OC)cc3c2C)N2CCCC2)cc1 (centres unmarked) [MLS001150589] | 25.9 µM | 4 | – | 1.2
18 | CCN(CCNCC(O)COc1ccccc1C(C)C)c1cccc(C)c1.O=C(O)C(=O)O (centres unmarked) [MLS001179997] | 25.5 µM | 1.4 | – | –
19 | Oc1ccc(N2CCN(Cc3ccc(OCCCN4CCCCC4)cc3)CC2)cc1 [MLS000736237] | 14 µM | 4 | – | 1.2
20 | COc1ccc(Nc2cc(C)nc3ccc(OC)cc23)cc1 [MLS001209453] | 12.5 µM | 1.3 | 3.4 µM | 1.2
21 | Cc1ccccc1NC(=O)CSc1ccc(-c2ccccn2)nn1 [MLS001237534] | 24.8 µM | 4 | – | –
22 | O=C(NC1CCCCC1)c1ccc(S(=O)(=O)N2CCCCC2)cc1 [MLS000063146] | 25.4 µM | 4 | – | 1.2
23 | Cc1cc(C)c2nc(C)cc(Nc3ccc(C(=O)NCCO)cc3)c2c1 [MLS000768081] | 13.8 µM | 4 | – | 1.2
24 | CC(C)(C)c1cc(/C=N/O)cc(C(C)(C)C)c1O [MLS000391984] | 6.12 µM | 1.4 | – | 1.2
25 | O=C(C#Cc1ccccc1)c1ccco1 [MLS001174896] | 12.2 µM | – | 12.4 µM | –
26 | COc1ccc(C(C(=O)NC2CCCCC2)N(C(=O)CCl)c2ccc(C)cc2)cc1 (centres unmarked) [MLS000583959] | 12.1 µM | 1.3 | 12.4 µM | 1.2
27 | Fc1ccc2c(c1)Sc1ccc(Cl)cc1CC2N1CCN(CCC2OCCO2)CC1 (centres unmarked) [MLS001179272] | 25.4 µM | 1.5 | 0.691 µM | 1.3
28 | O=C1COc2ccc(C(=O)CCl)cc2N1 [MLS000780111] | ~38.8 µM | 4 | – | –
29 | COc1ccc2c(c1)CC(N1CCN(C)CC1)c1cc(OC)ccc1S2.O=C(O)/C=C\C(=O)O (centres unmarked) [MLS001179278] | 12.5 µM | 1.6 | 6.49 µM | 1.2
30 | CCN(CC)CCNC1=NCCn2c1cc1cc(OC)ccc12 [MLS000556387] | 25.5 µM | 1.6 | 2.93 µM | 1.2
